Results: US10709758B2 (priority 2015, dated 2020)
Residues, ends and D or L forms follow the SMILES beside them.

What was measured:
TcdB [1] = test system: TcdB
TcdB1 = TcdB1 (Clostridioides difficile, UniProt P18177)
CHO-K1 cells = type: cell-based
TcdB [2] = target: TcdB (Clostridioides difficile, UniProt P18177); conditions: cited from earlier work
Sequence of TcdB (Clostridioides difficile, UniProt P18177) (P18177 whole entry, looked up): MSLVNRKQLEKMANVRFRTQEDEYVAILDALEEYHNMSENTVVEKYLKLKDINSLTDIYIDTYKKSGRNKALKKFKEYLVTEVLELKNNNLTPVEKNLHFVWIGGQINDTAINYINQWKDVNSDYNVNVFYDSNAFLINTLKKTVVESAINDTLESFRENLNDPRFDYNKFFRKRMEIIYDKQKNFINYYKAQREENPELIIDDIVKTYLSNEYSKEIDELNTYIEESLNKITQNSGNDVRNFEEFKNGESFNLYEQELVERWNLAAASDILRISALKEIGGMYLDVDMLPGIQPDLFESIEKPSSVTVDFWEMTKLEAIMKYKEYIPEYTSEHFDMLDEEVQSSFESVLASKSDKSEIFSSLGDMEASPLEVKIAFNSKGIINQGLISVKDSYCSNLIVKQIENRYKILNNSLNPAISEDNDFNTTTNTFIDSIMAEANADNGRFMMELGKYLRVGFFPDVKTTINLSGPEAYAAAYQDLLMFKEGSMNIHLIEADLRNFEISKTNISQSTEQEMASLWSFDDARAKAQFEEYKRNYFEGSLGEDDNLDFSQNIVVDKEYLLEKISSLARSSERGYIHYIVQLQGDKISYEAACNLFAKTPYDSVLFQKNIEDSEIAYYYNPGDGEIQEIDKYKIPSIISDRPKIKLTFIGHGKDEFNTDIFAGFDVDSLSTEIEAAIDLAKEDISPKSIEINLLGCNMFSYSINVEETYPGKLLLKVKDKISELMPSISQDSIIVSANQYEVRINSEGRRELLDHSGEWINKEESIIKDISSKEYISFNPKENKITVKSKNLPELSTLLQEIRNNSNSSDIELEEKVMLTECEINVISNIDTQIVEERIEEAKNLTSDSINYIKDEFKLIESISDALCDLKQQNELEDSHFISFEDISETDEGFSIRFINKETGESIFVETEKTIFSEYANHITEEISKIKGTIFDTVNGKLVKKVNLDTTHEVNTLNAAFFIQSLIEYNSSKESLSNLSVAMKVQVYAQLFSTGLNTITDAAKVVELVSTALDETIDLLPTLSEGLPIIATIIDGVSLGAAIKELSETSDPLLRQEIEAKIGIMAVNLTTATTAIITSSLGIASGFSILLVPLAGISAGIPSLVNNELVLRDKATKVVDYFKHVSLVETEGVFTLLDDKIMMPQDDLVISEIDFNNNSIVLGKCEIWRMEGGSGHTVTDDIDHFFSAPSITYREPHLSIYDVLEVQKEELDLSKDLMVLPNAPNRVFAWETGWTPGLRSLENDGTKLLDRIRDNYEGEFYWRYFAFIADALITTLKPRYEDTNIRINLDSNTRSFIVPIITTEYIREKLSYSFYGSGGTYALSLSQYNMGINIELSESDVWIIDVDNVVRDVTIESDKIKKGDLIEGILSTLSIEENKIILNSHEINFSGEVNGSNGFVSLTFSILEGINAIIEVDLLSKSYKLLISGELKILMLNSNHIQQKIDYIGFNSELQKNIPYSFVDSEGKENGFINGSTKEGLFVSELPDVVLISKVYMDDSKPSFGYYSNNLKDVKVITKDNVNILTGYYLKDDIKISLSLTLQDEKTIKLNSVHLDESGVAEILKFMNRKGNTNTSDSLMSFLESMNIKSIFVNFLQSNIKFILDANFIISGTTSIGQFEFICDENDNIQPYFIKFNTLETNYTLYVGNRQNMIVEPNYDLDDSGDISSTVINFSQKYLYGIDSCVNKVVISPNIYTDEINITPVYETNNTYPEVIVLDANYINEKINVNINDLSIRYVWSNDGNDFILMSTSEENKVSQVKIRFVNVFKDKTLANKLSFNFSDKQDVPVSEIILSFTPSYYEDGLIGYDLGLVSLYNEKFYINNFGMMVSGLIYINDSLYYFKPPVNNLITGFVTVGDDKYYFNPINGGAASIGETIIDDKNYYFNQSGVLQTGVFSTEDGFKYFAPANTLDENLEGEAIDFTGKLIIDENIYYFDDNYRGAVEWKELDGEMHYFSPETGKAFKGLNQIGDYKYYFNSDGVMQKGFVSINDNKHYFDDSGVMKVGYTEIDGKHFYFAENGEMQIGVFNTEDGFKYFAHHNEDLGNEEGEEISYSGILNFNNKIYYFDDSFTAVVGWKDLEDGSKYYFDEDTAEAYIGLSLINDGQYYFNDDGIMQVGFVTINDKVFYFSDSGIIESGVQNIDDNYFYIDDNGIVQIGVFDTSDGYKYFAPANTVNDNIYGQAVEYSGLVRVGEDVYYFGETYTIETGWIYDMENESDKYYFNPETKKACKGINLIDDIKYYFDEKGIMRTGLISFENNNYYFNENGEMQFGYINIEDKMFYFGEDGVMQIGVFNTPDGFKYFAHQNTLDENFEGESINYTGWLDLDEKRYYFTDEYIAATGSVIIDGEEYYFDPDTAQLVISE

Sequence of TcdB1 (P18177 2-2366 limits assumed): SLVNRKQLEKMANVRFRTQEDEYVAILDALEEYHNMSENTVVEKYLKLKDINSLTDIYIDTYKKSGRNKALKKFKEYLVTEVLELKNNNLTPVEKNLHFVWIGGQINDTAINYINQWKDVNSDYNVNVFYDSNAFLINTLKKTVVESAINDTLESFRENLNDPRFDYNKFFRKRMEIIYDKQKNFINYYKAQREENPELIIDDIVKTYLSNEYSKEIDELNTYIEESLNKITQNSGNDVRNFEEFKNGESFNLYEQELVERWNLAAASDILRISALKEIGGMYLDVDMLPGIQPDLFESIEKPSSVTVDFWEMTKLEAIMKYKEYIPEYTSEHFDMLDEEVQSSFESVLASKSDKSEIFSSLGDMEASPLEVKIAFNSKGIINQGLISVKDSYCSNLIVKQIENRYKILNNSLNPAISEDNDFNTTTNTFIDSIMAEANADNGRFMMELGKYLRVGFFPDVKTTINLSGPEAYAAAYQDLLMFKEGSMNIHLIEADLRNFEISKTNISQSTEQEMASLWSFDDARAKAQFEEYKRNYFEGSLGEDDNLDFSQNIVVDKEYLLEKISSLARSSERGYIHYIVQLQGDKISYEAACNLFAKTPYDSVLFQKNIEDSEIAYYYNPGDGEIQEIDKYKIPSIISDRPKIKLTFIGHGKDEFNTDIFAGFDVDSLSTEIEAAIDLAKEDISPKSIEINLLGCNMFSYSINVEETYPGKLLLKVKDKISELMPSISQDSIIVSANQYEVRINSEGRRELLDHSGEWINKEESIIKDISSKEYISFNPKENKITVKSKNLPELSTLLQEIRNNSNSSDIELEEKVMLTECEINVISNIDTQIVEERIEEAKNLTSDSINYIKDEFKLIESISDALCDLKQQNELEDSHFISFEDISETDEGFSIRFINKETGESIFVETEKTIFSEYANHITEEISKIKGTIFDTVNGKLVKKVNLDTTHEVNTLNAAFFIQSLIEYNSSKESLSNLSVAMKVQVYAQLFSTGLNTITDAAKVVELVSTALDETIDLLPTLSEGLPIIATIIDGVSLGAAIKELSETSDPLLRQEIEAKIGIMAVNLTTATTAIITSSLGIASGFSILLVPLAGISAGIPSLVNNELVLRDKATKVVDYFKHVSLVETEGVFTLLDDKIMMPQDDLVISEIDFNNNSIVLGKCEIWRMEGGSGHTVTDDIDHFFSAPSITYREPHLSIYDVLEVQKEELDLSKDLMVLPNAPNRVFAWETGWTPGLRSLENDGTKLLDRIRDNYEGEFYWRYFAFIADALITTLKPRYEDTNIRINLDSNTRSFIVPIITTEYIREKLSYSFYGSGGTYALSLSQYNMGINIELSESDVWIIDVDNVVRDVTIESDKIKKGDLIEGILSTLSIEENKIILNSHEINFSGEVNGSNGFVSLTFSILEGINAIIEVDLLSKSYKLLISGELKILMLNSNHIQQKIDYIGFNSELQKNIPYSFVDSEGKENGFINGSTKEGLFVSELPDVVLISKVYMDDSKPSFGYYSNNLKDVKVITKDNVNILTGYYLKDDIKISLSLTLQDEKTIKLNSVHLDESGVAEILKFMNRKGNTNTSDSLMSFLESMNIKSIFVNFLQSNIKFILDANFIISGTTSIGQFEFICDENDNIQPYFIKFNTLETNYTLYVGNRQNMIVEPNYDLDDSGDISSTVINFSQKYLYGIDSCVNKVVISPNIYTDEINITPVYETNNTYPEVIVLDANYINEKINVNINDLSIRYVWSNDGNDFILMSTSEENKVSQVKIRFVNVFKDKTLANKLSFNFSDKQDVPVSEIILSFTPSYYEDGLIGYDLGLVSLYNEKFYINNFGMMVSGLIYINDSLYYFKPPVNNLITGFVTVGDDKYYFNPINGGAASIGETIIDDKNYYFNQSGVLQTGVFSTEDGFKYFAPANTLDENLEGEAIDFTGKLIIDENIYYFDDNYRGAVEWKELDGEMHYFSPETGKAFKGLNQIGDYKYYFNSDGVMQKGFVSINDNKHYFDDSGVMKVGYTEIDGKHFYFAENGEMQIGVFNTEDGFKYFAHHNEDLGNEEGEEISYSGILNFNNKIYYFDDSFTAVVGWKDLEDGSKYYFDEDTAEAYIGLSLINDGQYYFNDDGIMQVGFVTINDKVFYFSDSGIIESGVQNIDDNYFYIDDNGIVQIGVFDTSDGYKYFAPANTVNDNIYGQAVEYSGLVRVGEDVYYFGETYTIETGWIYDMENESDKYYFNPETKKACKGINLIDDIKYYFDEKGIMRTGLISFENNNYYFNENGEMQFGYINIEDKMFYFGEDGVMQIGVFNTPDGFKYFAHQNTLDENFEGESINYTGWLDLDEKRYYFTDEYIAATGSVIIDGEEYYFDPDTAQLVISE

CC(C)[C@H](NC(=O)[C@H](CCCCN)NC(=O)[C@H](CCCNC(=N)N)NC(=O)[C@H](CCCCN)NC(=O)[C@H](CCCCN)NC(=O)[C@H](CCCCN)NC(=O)[C@@H]1CCCN1C(=O)[C@H](CCC(N)=O)NC(=O)[C@H](CO)NC(=O)[C@H](Cc1c[nH]c2ccccc12)NC(=O)[C@H](CCC(=O)O)NC(=O)[C@@H](NC(=O)[C@H](Cc1c[nH]c2ccccc12)NC(=O)[C@H](Cc1c[nH]c2ccccc12)NC(=O)[C@@H](NC(=O)[C@H](CCC(=O)O)NC(=O)[C@H](Cc1c[nH]c2ccccc12)NC(=O)[C@H](Cc1c[nH]c2ccccc12)NC(=O)[C@@H](NC(=O)[C@H](CCC(=O)O)NC(=O)[C@@H](N)CCCCN)[C@@H](C)O)[C@@H](C)O)[C@@H](C)O)C(=O)O [Pep-1, reference compound] (H-KETWWETWWTEWSQPKKKRKV-OH)
effect of known CPPs on the cytotoxicity of TcdB (TcdB [1]): did not appear to alter TcdB cytotoxicity

CC(C)C[C@H](NC(=O)[C@H](CCCCN)NC(=O)[C@H](CC(N)=O)NC(=O)[C@H](C)NC(=O)[C@H](CC(C)C)NC(=O)[C@@H](NC(=O)[C@H](CCCCN)NC(=O)[C@H](CC(=O)O)NC(=O)[C@H](CCCCN)NC(=O)[C@H](Cc1ccccc1)NC(=O)[C@@H](NC(=O)[C@@H](N)CC(N)=O)C(C)C)[C@@H](C)O)C(=O)N[C@@H](CO)C(=O)N[C@@H](Cc1ccccc1)C(=O)N[C@@H](CC(N)=O)C(=O)N[C@@H](Cc1ccccc1)C(=O)N[C@@H](CO)C(=O)N[C@@H](CC(=O)O)C(=O)N[C@@H](CCCCN)C(=O)O [PepB1] (H-NVFKDKTLANKLSFNFSDK-OH)
protection from cytotoxicity of TcdB2 over a range of toxin concentrations (TcdB2): did not inhibit the cytotoxicity | protection from cytotoxicity of TcdB1 over a range of toxin concentrations (TcdB1): did not inhibit the cytotoxicity

CC[C@H](C)[C@H](NC(=O)[C@H](CCCCN)NC(=O)[C@H](CC(=O)O)NC(=O)[C@H](CO)NC(=O)[C@@H](NC(=O)[C@@H](NC(=O)[C@H](CC(N)=O)NC(=O)CNC(=O)[C@H](CCCCN)NC(=O)[C@H](Cc1ccccc1)NC(=O)[C@@H](NC(=O)[C@@H](N)CC(N)=O)C(C)C)[C@@H](C)O)[C@@H](C)CC)C(=O)N[C@@H](CO)C(=O)N[C@@H](Cc1ccccc1)C(=O)N[C@@H](CC(N)=O)C(=O)N[C@@H](Cc1ccccc1)C(=O)N[C@@H](CO)C(=O)N[C@@H](CC(=O)O)C(=O)N[C@@H](CCCCN)C(=O)O [PepB2]
increase of the 50% toxic concentration (TC50) of TcdB2 (TcdB2): 200 fold | protection from cytotoxicity of TcdB2 over a range of toxin concentrations (TcdB2): protects CHO-K1 cells | impact on TcdB cytotoxicity, PepB2 alone at 25 μM (TcdB [1]): minimal impact | inhibition of TcdB cytotoxicity, PepB2 combined with methyl cholate (TcdB [1]): strong inhibition

N=C(N)NCCC[C@H](NC(=O)CN)C(=O)N[C@@H](CCCCN)C(=O)N[C@@H](CCCCN)C(=O)N[C@@H](CCCNC(=N)N)C(=O)N[C@@H](CCCNC(=N)N)C(=O)N[C@@H](CCC(N)=O)C(=O)N[C@@H](CCCNC(=N)N)C(=O)N[C@@H](CCCNC(=N)N)C(=O)N[C@@H](CCCNC(=N)N)C(=O)N1CCC[C@H]1C(=O)N1CCC[C@H]1C(=O)N[C@@H](CCC(N)=O)C(=O)O [TAT, reference compound]
effect of known CPPs on the cytotoxicity of TcdB (TcdB [1]): did not appear to alter TcdB cytotoxicity

CC[C@H](C)[C@H](NC(=O)[C@H](CCCCN)NC(=O)[C@H](CCCCN)NC(=O)[C@H](C)NC(=O)[C@H](CC(C)C)NC(=O)[C@H](C)NC(=O)[C@H](C)NC(=O)[C@H](CC(C)C)NC(=O)[C@H](C)NC(=O)[C@H](CCCCN)NC(=O)[C@H](CC(C)C)NC(=O)[C@H](CC(N)=O)NC(=O)[C@@H](NC(=O)[C@H](CCCCN)NC(=O)CNC(=O)[C@H](CC(C)C)NC(=O)[C@H](CC(C)C)NC(=O)[C@H](Cc1ccc(O)cc1)NC(=O)CNC(=O)[C@H](C)N)[C@@H](C)CC)C(=O)N[C@@H](CC(C)C)C(=O)O [transportan 10, reference compound]
effect of known CPPs on the cytotoxicity of TcdB (TcdB [1]): did not appear to alter TcdB cytotoxicity

DKFSNSNKDKISFGNVTFI [Scramble 9]
Anti-TcdB activity of scrambled PepB2 peptides (TcdB [1]): found to have inhibitory activity

FKDNNSIIFDVKGTNFSSK [Scramble 8]
Anti-TcdB activity of scrambled PepB2 peptides (TcdB [1]): found to have inhibitory activity

KPPIKNLITGFTTIGDDKYYF [Peptide 9]
inhibitory activity against TcdB2 (percent of viable cells) (TcdB2): weaker inhibitory activity | inhibitory activity against TcdB1 (percent of viable cells) (TcdB1): weaker inhibitory activity

NVFKGKTISDKISFNFSDK [PepB2-N6K]
cell penetrating activities of mutant peptides (CHO-K1 cells): cell penetrating activities were reduced

NVFKGNTLANKLSFNFSDK [PepB1-DK5-6GN]
cell penetrating activities of mutant peptides (CHO-K1 cells): cell penetrating activities were gained

NVFKSNTISDKISFNFSDK [PepB2-G5S]
cell penetrating activities of mutant peptides (CHO-K1 cells): Cell penetrating activities also remained | dextran delivery compared with PepB2 (CHO-K1 cells): this is not the case for dextran delivery | transport of dsRNA into cells compared with PepB2 (CHO-K1 cells): more efficiently transports dsRNA into cells than PepB2

SFNKMSIDFKDIKKLSLGYIMS [TcdA 1774-1795]
TcdB inhibitory activity? (TcdB [1]): YES | dose dependence of inhibition of TcdB (TcdB [1]): Dose-dependent inhibition | inhibitory activity against TcdB toxin (TcdB [1]): found to have inhibitory activity against TcdB toxin

SNKNFSGIVFTNFDIDKSK [Scramble 12]
Anti-TcdB activity of scrambled PepB2 peptides (TcdB [1]): found to have inhibitory activity

methyl cholate [reference compound]
effect on the thermal stability of TcdB (TcdB [2]): increase the thermal stability of TcdB | impact on TcdB cytotoxicity, methyl cholate alone (TcdB [1]): minimal impact
